Test results: ChEMBL document CHEMBL1145365, “The discovery of long acting beta2-adrenoreceptor agonists” (Bioorg Med Chem Lett, 2007)

biological target: Beta-2 adrenergic receptor (Cavia porcellus) (UniProt Q8K4Z4); experiment: Effect on guinea pig trachea model assessed as duration of muscle tone; type: functional, tissue-based; conditions: Muscle tissue
Sequence (Q8K4Z4 whole entry, looked up): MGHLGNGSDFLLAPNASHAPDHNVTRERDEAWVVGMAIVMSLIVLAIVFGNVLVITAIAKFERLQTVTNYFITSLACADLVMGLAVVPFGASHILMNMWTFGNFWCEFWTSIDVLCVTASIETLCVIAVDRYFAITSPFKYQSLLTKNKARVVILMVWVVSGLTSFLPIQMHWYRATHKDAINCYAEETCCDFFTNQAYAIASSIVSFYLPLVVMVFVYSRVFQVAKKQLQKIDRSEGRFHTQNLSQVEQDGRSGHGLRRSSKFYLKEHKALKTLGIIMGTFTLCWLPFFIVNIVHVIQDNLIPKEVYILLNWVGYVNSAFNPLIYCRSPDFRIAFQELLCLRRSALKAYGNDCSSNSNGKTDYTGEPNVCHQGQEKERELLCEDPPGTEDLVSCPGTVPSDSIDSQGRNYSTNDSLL

SMILES | TIME [h]
C[C@H](Cc1cccc(CC(=O)NCc2cc(C(F)(F)F)ccc2F)c1)NC[C@H](O)c1ccc(O)c(CO)c1 | 6.6
C[C@H](Cc1cccc(CC(=O)NCc2cccc3ccccc23)c1)NC[C@H](O)c1ccc(O)c(CO)c1 | 3.9
Cc1ccc(CNC(=O)Cc2cccc(C[C@@H](C)NC[C@H](O)c3ccc(O)c(CO)c3)c2)cc1C | 4.6
COc1cccc(OC)c1CNC(=O)Cc1cccc(C[C@@H](C)NC[C@H](O)c2ccc(O)c(CO)c2)c1 | 1.5
C[C@H](Cc1cccc(CC(=O)NC2Cc3ccccc3C2)c1)NC[C@H](O)c1ccc(O)c(CO)c1 | 5.4
C[C@H](Cc1cccc(CC(=O)NCc2cc(Cl)cc(Cl)c2)c1)NC[C@H](O)c1ccc(O)c(CO)c1 | 7.2
C[C@H](Cc1cccc(CC(=O)NCc2c(F)cccc2Cl)c1)NC[C@H](O)c1ccc(O)c(CO)c1 | 5.2
C[C@H](Cc1cccc(CC(=O)NCc2ccc(OC(F)(F)F)cc2)c1)NC[C@H](O)c1ccc(O)c(CO)c1 | 8.1
C[C@H](Cc1cccc(CC(=O)NCc2ccc(Cl)c(Cl)c2)c1)NC[C@H](O)c1ccc(O)c(CO)c1 | 9

biological target: Beta-2 adrenergic receptor (Homo sapiens, UniProt P07550); experiment: not given; conditions: not given
Sequence (P07550 whole entry): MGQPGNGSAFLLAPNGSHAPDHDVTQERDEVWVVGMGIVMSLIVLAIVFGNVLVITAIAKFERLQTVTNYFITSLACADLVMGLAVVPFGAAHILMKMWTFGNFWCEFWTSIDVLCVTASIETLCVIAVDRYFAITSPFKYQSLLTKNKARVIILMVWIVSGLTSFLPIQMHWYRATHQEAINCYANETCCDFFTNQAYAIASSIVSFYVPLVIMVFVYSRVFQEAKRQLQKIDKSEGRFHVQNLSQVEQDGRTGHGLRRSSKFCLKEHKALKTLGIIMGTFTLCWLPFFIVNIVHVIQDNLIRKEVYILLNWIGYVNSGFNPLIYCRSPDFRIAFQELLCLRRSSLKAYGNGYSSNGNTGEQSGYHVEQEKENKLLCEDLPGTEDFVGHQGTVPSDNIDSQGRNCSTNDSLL

SMILES | EC50 [nM]
C[C@H](Cc1cccc(CC(=O)NCc2ccccc2)c1)NC[C@H](O)c1ccc(O)c(CO)c1 | 0.096
O=C(Cc1cccc(CCNC[C@H](O)c2ccc(O)c(CO)c2)c1)NCc1ccccc1 | 0.096
CC(C)(Cc1cccc(CC(=O)NCc2ccccc2)c1)NC[C@H](O)c1ccc(O)c(CO)c1 | 0.02

test system: not listed separately; experiment: Volume of distribution in iv dosed rat; type: ADME, organism-based; conditions: in vivo, read-out: Vdss

SMILES | Vd [L/kg]
OCc1cc([C@@H](O)CNCCCCCCOCCCCc2ccccc2)ccc1O [SALMETEROL] | 16.6
C[C@H](Cc1cccc(CC(=O)NCc2ccc(Cl)c(Cl)c2)c1)NC[C@H](O)c1ccc(O)c(CO)c1 | 16.6

biological target: Beta-2 adrenergic receptor (Cavia porcellus) (UniProt Q8K4Z4); experiment: Agonist potency at beta-2 adrenoceptor in guinea pig trachea model relative to salmeterol; type: functional, tissue-based; conditions: not given

SMILES | Activity
C[C@H](Cc1cccc(CC(=O)NCc2cc(C(F)(F)F)ccc2F)c1)NC[C@H](O)c1ccc(O)c(CO)c1 | 0.9
C[C@H](Cc1cccc(CC(=O)NCc2cccc3ccccc23)c1)NC[C@H](O)c1ccc(O)c(CO)c1 | 1
Cc1ccc(CNC(=O)Cc2cccc(C[C@@H](C)NC[C@H](O)c3ccc(O)c(CO)c3)c2)cc1C | 0.5
COc1cccc(OC)c1CNC(=O)Cc1cccc(C[C@@H](C)NC[C@H](O)c2ccc(O)c(CO)c2)c1 | 0.3
C[C@H](Cc1cccc(CC(=O)NC2Cc3ccccc3C2)c1)NC[C@H](O)c1ccc(O)c(CO)c1 | 0.1
C[C@H](Cc1cccc(CC(=O)NCc2cc(Cl)cc(Cl)c2)c1)NC[C@H](O)c1ccc(O)c(CO)c1 | 0.5
C[C@H](Cc1cccc(CC(=O)NCc2c(F)cccc2Cl)c1)NC[C@H](O)c1ccc(O)c(CO)c1 | 0.07
C[C@H](Cc1cccc(CC(=O)NCc2ccc(OC(F)(F)F)cc2)c1)NC[C@H](O)c1ccc(O)c(CO)c1 | 1
OCc1cc([C@@H](O)CNCCCCCCOCCCCc2ccccc2)ccc1O [SALMETEROL] | 1
C[C@H](Cc1cccc(CC(=O)NCc2ccc(Cl)c(Cl)c2)c1)NC[C@H](O)c1ccc(O)c(CO)c1 | 0.4

test system: not listed separately; experiment: Distribution coefficient, log D of the compound; conditions: octanol/water

SMILES | logD
C[C@H](Cc1cccc(CC(=O)NCc2ccccc2)c1)NC[C@H](O)c1ccc(O)c(CO)c1 | 0.8
C[C@H](Cc1cccc(CC(=O)NCc2cccc3ccccc23)c1)NC[C@H](O)c1ccc(O)c(CO)c1 | 1.5
Cc1ccc(CNC(=O)Cc2cccc(C[C@@H](C)NC[C@H](O)c3ccc(O)c(CO)c3)c2)cc1C | 2.2
COc1cccc(OC)c1CNC(=O)Cc1cccc(C[C@@H](C)NC[C@H](O)c2ccc(O)c(CO)c2)c1 | 0.8
C[C@H](Cc1cccc(CC(=O)NC2Cc3ccccc3C2)c1)NC[C@H](O)c1ccc(O)c(CO)c1 | 1.6
O=C(Cc1cccc(CCNC[C@H](O)c2ccc(O)c(CO)c2)c1)NCc1ccccc1 | 0.4
C[C@H](Cc1cccc(CC(=O)NCc2cc(Cl)cc(Cl)c2)c1)NC[C@H](O)c1ccc(O)c(CO)c1 | 2.3
CC(C)(Cc1cccc(CC(=O)NCc2ccccc2)c1)NC[C@H](O)c1ccc(O)c(CO)c1 | 1
C[C@H](Cc1cccc(CC(=O)NCc2ccc(OC(F)(F)F)cc2)c1)NC[C@H](O)c1ccc(O)c(CO)c1 | 2.4
OCc1cc([C@@H](O)CNCCCCCCOCCCCc2ccccc2)ccc1O [SALMETEROL] | 2.5
C[C@H](Cc1cccc(CC(=O)NCc2ccc(Cl)c(Cl)c2)c1)NC[C@H](O)c1ccc(O)c(CO)c1 | 2.6

test system: not listed separately; experiment: Clearance in iv dosed rat; type: ADME, organism-based; conditions: in vivo

SMILES | clearance [mL/min/kg]
C[C@H](Cc1cccc(CC(=O)NCc2ccc(Cl)c(Cl)c2)c1)NC[C@H](O)c1ccc(O)c(CO)c1 | 123

test system: not listed separately; experiment: Half life in iv dosed rat; type: ADME, organism-based; conditions: in vivo

SMILES | half-life [min]
C[C@H](Cc1cccc(CC(=O)NCc2ccc(Cl)c(Cl)c2)c1)NC[C@H](O)c1ccc(O)c(CO)c1 | 90

test system: not listed separately; experiment: Half life in human liver microsome at 1 uM; conditions: liver microsomes

SMILES | half-life at 1 µM [min]
C[C@H](Cc1cccc(CC(=O)NCc2cccc3ccccc23)c1)NC[C@H](O)c1ccc(O)c(CO)c1 | 2
Cc1ccc(CNC(=O)Cc2cccc(C[C@@H](C)NC[C@H](O)c3ccc(O)c(CO)c3)c2)cc1C | 10
C[C@H](Cc1cccc(CC(=O)NCc2ccc(OC(F)(F)F)cc2)c1)NC[C@H](O)c1ccc(O)c(CO)c1 | 15
C[C@H](Cc1cccc(CC(=O)NCc2ccc(Cl)c(Cl)c2)c1)NC[C@H](O)c1ccc(O)c(CO)c1 | 4

same assay, conditions: microsomes

SMILES | half-life at 1 µM [min]
C[C@H](Cc1cccc(CC(=O)NCc2cc(C(F)(F)F)ccc2F)c1)NC[C@H](O)c1ccc(O)c(CO)c1 | 9

test system: not listed separately; experiment: in vitro; conditions: human, Caco-2, pH 7.4
Description: Permeability from apical to basolateral side of the Caco-2 cell membrane at 25 uM in pH 7.4

SMILES | Papp A→B at 25 µM [×10⁻⁶ cm/s]
C[C@H](Cc1cccc(CC(=O)NC2Cc3ccccc3C2)c1)NC[C@H](O)c1ccc(O)c(CO)c1 | 1
C[C@H](Cc1cccc(CC(=O)NCc2cc(Cl)cc(Cl)c2)c1)NC[C@H](O)c1ccc(O)c(CO)c1 | 1
C[C@H](Cc1cccc(CC(=O)NCc2ccc(Cl)c(Cl)c2)c1)NC[C@H](O)c1ccc(O)c(CO)c1 | 1
